# According to patent US7893266B2, “Detection of cancer cells in vitro using sigma-2 receptor ligands as radiotracers” (Washington University, priority 2003, dated 2011):
# Read-outs that look alike come from different tables or passages of the source.
# What was measured:
# [1] = target: T1, σ2 receptors in the breast tumors (Mus musculus, UniProt Q8VD00); experiment: In vivo blocking studies with YUN 143 in tumor-bearing mice; conditions: blocking agent YUN 143 (1 mg/kg, i.v.); time point of highest % I.D./gram tumor
# T1 construct: mature Balb/c mice that were implanted with EMT-6 mammary tumors; from tissue; host or cells: EMT-6 mammary tumours in Balb/c mice, in vivo
# T1 sequence (Q8VD00 1-176): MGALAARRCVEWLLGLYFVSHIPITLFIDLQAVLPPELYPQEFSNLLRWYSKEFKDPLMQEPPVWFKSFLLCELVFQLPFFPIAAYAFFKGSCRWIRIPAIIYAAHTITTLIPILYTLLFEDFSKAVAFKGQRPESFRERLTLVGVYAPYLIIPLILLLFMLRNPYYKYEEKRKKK
# Source text: The blocking agent was YUN 143, which has a high affinity for σ1 and σ2 receptors. Animals were sacrificed at the time point displaying the highest % I.D./gram tumor.
# The inventors then conducted blocking studies in order to confirm that the radiotracer labeled σ2 receptors in the breast tumors. […] We have previously reported that [^18F]YUN 143 labels σ1 and σ2 receptors in breast tumor xenografts (Mach et al., 2001).
# EMT-6 mammary tumors [2] = experiment: Biodistribution in EMT-6 BALB/C mice; format: in vivo
# Procedure: (§1) As used herein, the term “tumor:background ratio” (i.e., tumor:fat ratio, tumor:muscle ratio, tumor:lung ratio, tumor:blood ratio) refers to the % injected dose/g tissue of the radiotracer in the tumor divided by the % injected dose/g […] in the background tissue (i.e., fat, muscle, lung, blood).
# (§2) B. Biodistribution Studies of ^11C analogs in Tumor-Bearing Mice. Biodistribution studies were conducted in mature Balb/c mice that were implanted with EMT-6 mammary tumors identified herein as EMT-6 BALB/C mice to create laboratory tumor-bearing mice. The mice were implanted in the scapular region seven days prior to the study. Animals were injected with 100-150 μCi of the ^11C-labeled radiotracer and the animals were sacrificed at 5, 30, and 60 min post-i.v. injection of the radiotracer.
# (§3) A series of biodistribution studies in tumor-bearing mice were also conducted with [^76Br]8, [^76Br]6, [^125I]8i, and [^125I]6i.
# EMT-6 mammary tumors [3] = experiment: Comparison with [18F]FLT in tumor-bearing mice; format: in vivo; conditions: 1 hr for [11C]10; 2 hr post-i.v. injection for [76Br]6 and [125I]6i
# [4] = Biodistribution in EMT-6 BALB/C mice; format: in vivo; conditions: Balb/c, mouse, intravenous
# Procedure: as §1, §2, §3
# [5] = kidney, read-out: % ID per gram kidney
# [6] = liver, read-out: % ID per gram liver
smiles,measurement,setting,value
COc1cc2c(cc1OC)CN(CCCCNC(=O)c1cc(C)cc(OC)c1O[11CH3])CC2 [[^11C]10],in vivo blocking study result,[1],consistent with the labeling of σ2 receptors in vivo
same,ratio Tumor:blood,EMT-6 mammary tumors [2]; 5 min,1.37 ± 0.33
same,ratio Tumor:fat,EMT-6 mammary tumors [2]; 5 min,2.28 ± 0.32
same,ratio Tumor:heart,EMT-6 mammary tumors [2]; 5 min,0.71 ± 0.12
same,ratio Tumor:lung,EMT-6 mammary tumors [2]; 5 min,0.31 ± 0.11
same,ratio Tumor:muscle,EMT-6 mammary tumors [2]; 5 min,0.93 ± 0.13
same,ratio Tumor:blood,EMT-6 mammary tumors [2]; 30 min,1.80 ± 0.26
same,ratio Tumor:fat,EMT-6 mammary tumors [2]; 30 min,3.68 ± 1.14
same,ratio Tumor:heart,EMT-6 mammary tumors [2]; 30 min,2.53 ± 0.55
same,ratio Tumor:lung,EMT-6 mammary tumors [2]; 30 min,1.06 ± 0.24
same,ratio Tumor:muscle,EMT-6 mammary tumors [2]; 30 min,3.18 ± 0.51
same,ratio Tumor:blood,EMT-6 mammary tumors [2]; 1 hour,1.81 ± 0.11
same,ratio Tumor:fat,EMT-6 mammary tumors [2]; 1 hour,5.36 ± 2.38
same,ratio Tumor:heart,EMT-6 mammary tumors [2]; 1 hour,2.78 ± 0.79
same,ratio Tumor:lung,EMT-6 mammary tumors [2]; 1 hour,1.28 ± 0.41
same,ratio Tumor:muscle,EMT-6 mammary tumors [2]; 1 hour,2.78 ± 0.62
same,% ID per gram blood,EMT-6 mammary tumors [2]; 5 min,3.09 ± 0.33 % ID per gram
same,% ID per gram blood,EMT-6 mammary tumors [2]; 30 min,1.31 ± 0.11 % ID per gram
same,% ID per gram blood,EMT-6 mammary tumors [2]; 1 hour,0.73 ± 0.05 % ID per gram
same,% ID per gram brain,EMT-6 mammary tumors [2]; 5 min,2.29 ± 0.28 % ID per gram
same,% ID per gram brain,EMT-6 mammary tumors [2]; 30 min,0.28 ± 0.03 % ID per gram
same,% ID per gram brain,EMT-6 mammary tumors [2]; 1 hour,0.15 ± 0.01 % ID per gram
same,% ID per gram fat,EMT-6 mammary tumors [2]; 5 min,1.88 ± 0.50 % ID per gram
same,% ID per gram fat,EMT-6 mammary tumors [2]; 30 min,0.68 ± 0.19 % ID per gram
same,% ID per gram fat,EMT-6 mammary tumors [2]; 1 hour,0.33 ± 0.24 % ID per gram
same,% ID per gram heart,EMT-6 mammary tumors [2]; 5 min,5.86 ± 0.47 % ID per gram
same,% ID per gram heart,EMT-6 mammary tumors [2]; 30 min,0.95 ± 0.17 % ID per gram
same,% ID per gram heart,EMT-6 mammary tumors [2]; 1 hour,0.50 ± 0.11 % ID per gram
same,% ID per gram kidney,EMT-6 mammary tumors [2]; 5 min,20.50 ± 1.86 % ID per gram
same,% ID per gram kidney,EMT-6 mammary tumors [2]; 30 min,4.12 ± 0.51 % ID per gram
same,% ID per gram kidney,EMT-6 mammary tumors [2]; 1 hour,2.26 ± 0.36 % ID per gram
same,% ID per gram liver,EMT-6 mammary tumors [2]; 5 min,12.32 ± 1.73 % ID per gram
same,% ID per gram liver,EMT-6 mammary tumors [2]; 30 min,9.65 ± 2.00 % ID per gram
same,% ID per gram liver,EMT-6 mammary tumors [2]; 1 hour,3.00 ± 0.21 % ID per gram
same,% ID per gram lung,EMT-6 mammary tumors [2]; 5 min,14.02 ± 1.40 % ID per gram
same,% ID per gram lung,EMT-6 mammary tumors [2]; 30 min,2.27 ± 0.42 % ID per gram
same,% ID per gram lung,EMT-6 mammary tumors [2]; 1 hour,1.09 ± 0.26 % ID per gram
same,% ID per gram muscle,EMT-6 mammary tumors [2]; 5 min,4.49 ± 0.45 % ID per gram
same,% ID per gram muscle,EMT-6 mammary tumors [2]; 30 min,0.75 ± 0.13 % ID per gram
same,% ID per gram muscle,EMT-6 mammary tumors [2]; 1 hour,0.49 ± 0.11 % ID per gram
same,% ID per gram tumor,EMT-6 mammary tumors [2]; 5 min,4.22 ± 1.01 % ID per gram
same,% ID per gram tumor,EMT-6 mammary tumors [2]; 30 min,2.35 ± 0.27 % ID per gram
same,% ID per gram tumor,EMT-6 mammary tumors [2]; 1 hour,1.32 ± 0.17 % ID per gram
same,tumor:background ratios compared with [18F]FLT,EMT-6 mammary tumors [3],"tumor:lung and tumor:fat ratios equal to [^18F]FLT and tumor:blood, tumor:muscle and tumor:heart ratios that are greater than that of [18F]FLT"
COc1cc2c(cc1OC)CN(CCCCNC(=O)c1cc([125I])cc(OC)c1OC)CC2 [[^125I]6i],in vivo blocking study result,[1],consistent with the labeling of σ2 receptors in vivo
same,tissue uptake at 2 h,[4]; [5],2.45 ± 0.25 %ID/g
same,tissue uptake at 4 h,[4]; [5],0.63 ± 0.11 %ID/g
same,tissue uptake at 2 h,[4]; [6],1.91 ± 0.2 %ID/g
same,tissue uptake at 4 h,[4]; [6],0.9 ± 0.21 %ID/g
same,tissue uptake at 4 h,"[4]; lung, read-out: % ID per gram lung",0.29 ± 0.05 %ID/g
same,ratio Tumor:blood,EMT-6 mammary tumors [2]; 5 min,1.73 ± 0.46
same,ratio Tumor:fat,EMT-6 mammary tumors [2]; 5 min,1.00 ± 0.20
same,ratio Tumor:heart,EMT-6 mammary tumors [2]; 5 min,0.61 ± 0.07
same,ratio Tumor:lung,EMT-6 mammary tumors [2]; 5 min,0.15 ± 0.02
same,ratio Tumor:muscle,EMT-6 mammary tumors [2]; 5 min,0.98 ± 0.13
same,ratio Tumor:blood,EMT-6 mammary tumors [2]; 30 min,2.07 ± 0.32
same,ratio Tumor:fat,EMT-6 mammary tumors [2]; 30 min,2.62 ± 0.27
same,ratio Tumor:heart,EMT-6 mammary tumors [2]; 30 min,2.32 ± 0.18
same,ratio Tumor:lung,EMT-6 mammary tumors [2]; 30 min,0.82 ± 0.09
same,ratio Tumor:muscle,EMT-6 mammary tumors [2]; 30 min,3.94 ± 0.55
same,ratio Tumor:blood,EMT-6 mammary tumors [2]; 1 hour,2.44 ± 0.53
same,ratio Tumor:fat,EMT-6 mammary tumors [2]; 1 hour,4.85 ± 0.67
same,ratio Tumor:heart,EMT-6 mammary tumors [2]; 1 hour,3.89 ± 0.08
same,ratio Tumor:lung,EMT-6 mammary tumors [2]; 1 hour,1.66 ± 0.17
same,ratio Tumor:muscle,EMT-6 mammary tumors [2]; 1 hour,4.26 ± 0.74
same,ratio Tumor:blood,EMT-6 mammary tumors [2]; 2 hour,2.83 ± 1.62
same,ratio Tumor:fat,EMT-6 mammary tumors [2]; 2 hour,5.86 ± 2.93
same,ratio Tumor:heart,EMT-6 mammary tumors [2]; 2 hour,4.85 ± 2.31
same,ratio Tumor:lung,EMT-6 mammary tumors [2]; 2 hour,1.99 ± 1.04
same,ratio Tumor:muscle,EMT-6 mammary tumors [2]; 2 hour,6.99 ± 4.44
same,ratio Tumor:blood,EMT-6 mammary tumors [2]; 4 hour,3.11 ± 0.85
same,ratio Tumor:fat,EMT-6 mammary tumors [2]; 4 hour,9.59 ± 4.55
same,ratio Tumor:heart,EMT-6 mammary tumors [2]; 4 hour,5.91 ± 1.65
same,ratio Tumor:lung,EMT-6 mammary tumors [2]; 4 hour,2.83 ± 0.19
same,ratio Tumor:muscle,EMT-6 mammary tumors [2]; 4 hour,8.98 ± 3.01
same,% ID per gram blood,EMT-6 mammary tumors [2]; 5 min,2.37 ± 0.26 % ID per gram
same,% ID per gram blood,EMT-6 mammary tumors [2]; 30 min,2.19 ± 0.16 % ID per gram
same,% ID per gram blood,EMT-6 mammary tumors [2]; 1 hour,1.52 ± 0.49 % ID per gram
same,% ID per gram blood,EMT-6 mammary tumors [2]; 2 hour,0.65 ± 0.07 % ID per gram
same,% ID per gram blood,EMT-6 mammary tumors [2]; 4 hour,0.29 ± 0.11 % ID per gram
same,% ID per gram brain,EMT-6 mammary tumors [2]; 5 min,1.53 ± 0.14 % ID per gram
same,% ID per gram brain,EMT-6 mammary tumors [2]; 30 min,0.39 ± 0.03 % ID per gram
same,% ID per gram brain,EMT-6 mammary tumors [2]; 1 hour,0.15 ± 0.03 % ID per gram
same,% ID per gram brain,EMT-6 mammary tumors [2]; 2 hour,0.06 ± 0.01 % ID per gram
same,% ID per gram brain,EMT-6 mammary tumors [2]; 4 hour,0.02 ± 0.01 % ID per gram
same,% ID per gram fat,EMT-6 mammary tumors [2]; 5 min,4.15 ± 0.91 % ID per gram
same,% ID per gram fat,EMT-6 mammary tumors [2]; 30 min,1.73 ± 0.20 % ID per gram
same,% ID per gram fat,EMT-6 mammary tumors [2]; 1 hour,0.74 ± 0.17 % ID per gram
same,% ID per gram fat,EMT-6 mammary tumors [2]; 2 hour,0.33 ± 0.08 % ID per gram
same,% ID per gram fat,EMT-6 mammary tumors [2]; 4 hour,0.10 ± 0.05 % ID per gram
same,% ID per gram heart,EMT-6 mammary tumors [2]; 5 min,6.55 ± 0.54 % ID per gram
same,% ID per gram heart,EMT-6 mammary tumors [2]; 30 min,1.94 ± 0.09 % ID per gram
same,% ID per gram heart,EMT-6 mammary tumors [2]; 1 hour,0.91 ± 0.10 % ID per gram
same,% ID per gram heart,EMT-6 mammary tumors [2]; 2 hour,0.40 ± 0.05 % ID per gram
same,% ID per gram heart,EMT-6 mammary tumors [2]; 4 hour,0.15 ± 0.04 % ID per gram
same,% ID per gram kidney,EMT-6 mammary tumors [2]; 5 min,29.51 ± 2.23 % ID per gram
same,% ID per gram kidney,EMT-6 mammary tumors [2]; 30 min,13.69 ± 0.35 % ID per gram
same,% ID per gram kidney,EMT-6 mammary tumors [2]; 1 hour,5.94 ± 1.22 % ID per gram
same,% ID per gram liver,EMT-6 mammary tumors [2]; 5 min,13.20 ± 2.04 % ID per gram
same,% ID per gram liver,EMT-6 mammary tumors [2]; 30 min,8.77 ± 0.88 % ID per gram
same,% ID per gram liver,EMT-6 mammary tumors [2]; 1 hour,4.24 ± 0.60 % ID per gram
same,% ID per gram lung,EMT-6 mammary tumors [2]; 5 min,27.13 ± 1.61 % ID per gram
same,% ID per gram lung,EMT-6 mammary tumors [2]; 30 min,5.50 ± 0.62 % ID per gram
same,% ID per gram lung,EMT-6 mammary tumors [2]; 1 hour,2.12 ± 0.19 % ID per gram
same,% ID per gram lung,EMT-6 mammary tumors [2]; 2 hour,1.01 ± 0.18 % ID per gram
same,% ID per gram muscle,EMT-6 mammary tumors [2]; 5 min,4.10 ± 0.33 % ID per gram
same,% ID per gram muscle,EMT-6 mammary tumors [2]; 30 min,1.21 ± 0.17 % ID per gram
same,% ID per gram muscle,EMT-6 mammary tumors [2]; 1 hour,0.87 ± 0.22 % ID per gram
same,% ID per gram muscle,EMT-6 mammary tumors [2]; 2 hour,0.31 ± 0.10 % ID per gram
same,% ID per gram muscle,EMT-6 mammary tumors [2]; 4 hour,0.10 ± 0.04 % ID per gram
same,% ID per gram tumor,EMT-6 mammary tumors [2]; 5 min,4.02 ± 0.55 % ID per gram
same,% ID per gram tumor,EMT-6 mammary tumors [2]; 30 min,4.50 ± 0.43 % ID per gram
same,% ID per gram tumor,EMT-6 mammary tumors [2]; 1 hour,3.53 ± 0.42 % ID per gram
same,% ID per gram tumor,EMT-6 mammary tumors [2]; 2 hour,1.88 ± 0.76 % ID per gram
same,% ID per gram tumor,EMT-6 mammary tumors [2]; 4 hour,0.82 ± 0.09 % ID per gram
